# Experimental data reported in patent US11053242B2, “[9,10-dimethoxy-3-(2-methylpropyl)-1H,2H,3H,4H,6H,7H,11BH-pyrido-[2,1-a]isoquinolin-2-yl]methanol and compounds, compositions and methods relating thereto” (Neurocrine Biosciences, Inc., priority 2015, dated 2021).
# Biological target: VMAT2 (human platelet homogenate) (Homo sapiens (Human), UniProt Q05940)
# Assay: Human VMAT2 Ki, slightly modified competition binding procedure (Table 11);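 further: competition binding with 90 min incubation at 25 °C, after which filter-retained radioligand was measured by scintillation counting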
# Details: 10 nM 3H-dihydrotetrabenazine
# Experimental: Following incubation at 25° C. for 90 minutes, bound radioligand was collected by rapid filtration onto GF/B glass fiber filters using a Unifilter-96 Harvester (PerkinElmer). Filter plates were pre-treated with 0.1% polyethylenimine and allowed to dry overnight, and following harvesting the filter plates were washed with 800 d VMAT2 binding buffer. Bound radioligand was quantified by scintillation counting using a Topcount NXT (PerkinElmer).
# VMAT2 (human platelet homogenate), sequence (Q05940 whole entry): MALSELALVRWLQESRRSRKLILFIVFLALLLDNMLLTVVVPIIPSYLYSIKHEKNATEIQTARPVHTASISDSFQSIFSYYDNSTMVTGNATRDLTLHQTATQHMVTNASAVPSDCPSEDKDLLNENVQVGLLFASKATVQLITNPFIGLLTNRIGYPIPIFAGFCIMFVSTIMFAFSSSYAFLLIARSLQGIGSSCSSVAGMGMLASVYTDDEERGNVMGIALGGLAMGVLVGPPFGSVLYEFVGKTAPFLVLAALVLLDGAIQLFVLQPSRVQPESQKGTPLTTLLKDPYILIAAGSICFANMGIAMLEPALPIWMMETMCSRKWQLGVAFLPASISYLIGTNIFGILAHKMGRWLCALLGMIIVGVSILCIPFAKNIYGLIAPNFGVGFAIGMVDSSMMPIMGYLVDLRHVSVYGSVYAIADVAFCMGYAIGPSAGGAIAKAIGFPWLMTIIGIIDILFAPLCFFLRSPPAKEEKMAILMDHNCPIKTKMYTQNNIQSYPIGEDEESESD
row,SMILES,Ki [nM]
1,"COc1cc2c(cc1OC)[C@H]1C[C@@H](COC(=O)CC(C)(C)n3cccc3)[C@H](CC(C)C)CN1CC2 [Compound 2-28, [(2R,3S,11bR)-9,10-dimethoxy-3-(2-methylpropyl)-1H,2H,3H,4H,6H,7H,11bH-pyrido[2,1-a]isoquinolin-2-yl]methyl 3-methyl-3-(1H-pyrrol-1-yl)butanoate]",10 to 500
2,"CCS(=O)(=O)NCCC(=O)OC[C@@H]1C[C@@H]2c3cc(OC)c(OC)cc3CCN2C[C@H]1CC(C)C [Compound 2-5, [(2R,3S,11bR)-9,10-dimethoxy-3-(2-methylpropyl)-1H,2H,3H,4H,6H,7H,11bH-pyrido[2,1-a]isoquinolin-2-yl]methyl 3-ethanesulfonamidopropanoate]",< 10
3,"COc1cc2c(cc1OC)[C@H]1C[C@@H](COC(=O)C3(C)CCNCC3)[C@H](CC(C)C)CN1CC2 [Compound 4-35, [(2R,3S,11bR)-9,10-dimethoxy-3-(2-methylpropyl)-1H,2H,3H,4H,6H,7H,11bH-pyrido[2,1-a]isoquinolin-2-yl]methyl 4-methylpiperidine-4-carboxylate]",< 10
4,"COc1cc2c(cc1OC)[C@H]1C[C@@H](COC(=O)C(C)(C)O)[C@H](CC(C)C)CN1CC2 [Compound 2-24, [(2R,3S,11bR)-9,10-dimethoxy-3-(2-methylpropyl)-1H,2H,3H,4H,6H,7H,11bH-pyrido[2,1-a]isoquinolin-2-yl]methyl 2-hydroxy-2-methylpropanoate]",10 to 500
5,"COc1cc2c(cc1OC)[C@H]1C[C@@H](COC(=O)[C@@H]3CCN(Cc4ccccc4)C3)[C@H](CC(C)C)CN1CC2 [Compound 2-6, [(2R,3S,11bR)-9,10-dimethoxy-3-(2-methylpropyl)-1H,2H,3H,4H,6H,7H,11bH-pyrido[2,1-a]isoquinolin-2-yl]methyl (3R)-1-benzylpyrrolidine-3-carboxylate]",< 10
6,"COc1cc2c(cc1OC)[C@H]1C[C@@H](COC(=O)CC3CCCCN3)[C@H](CC(C)C)CN1CC2 (stereo partly drawn) [Compound 4-34, [(2R,3S,11bR)-9,10-dimethoxy-3-(2-methylpropyl)-1H,2H,3H,4H,6H,7H,11bH-pyrido[2,1-a]isoquinolin-2-yl]methyl 2-(piperidin-2-yl)acetate]",< 10
7,"COc1cc2c(cc1OC)[C@H]1C[C@@H](COC(=O)CCCN(C)C)[C@H](CC(C)C)CN1CC2 [Compound 2-36, [(2R,3S,11bR)-9,10-dimethoxy-3-(2-methylpropyl)-1H,2H,3H,4H,6H,7H,11bH-pyrido[2,1-a]isoquinolin-2-yl]methyl 4-(dimethylamino)butanoate]",< 10
8,"COc1cc2c(cc1OC)[C@H]1C[C@@H](COC(=O)C3NCc4ccccc43)[C@H](CC(C)C)CN1CC2 (stereo partly drawn) [Compound 4-6, [(2R,3S,11bR)-9,10-dimethoxy-3-(2-methylpropyl)-1H,2H,3H,4H,6H,7H,11bH-pyrido[2,1-a]isoquinolin-2-yl]methyl 2,3-dihydro-1H-isoindole-1-carboxylate]",10 to 500
9,"COc1cc2c(cc1OC)[C@H]1C[C@@H](COC(=O)CCN3CCOCC3)[C@H](CC(C)C)CN1CC2 [Compound 2-2, [(2R,3S,11bR)-9,10-dimethoxy-3-(2-methylpropyl)-1H,2H,3H,4H,6H,7H,11bH-pyrido[2,1-a]isoquinolin-2-yl]methyl 3-(morpholin-4-yl)propanoate]",< 10
10,"COc1cc2c(cc1OC)[C@H]1C[C@@H](COC(=O)C[C@H]3CCCN3)[C@H](CC(C)C)CN1CC2 [Compound 4-23, [(2R,3S,11bR)-9,10-dimethoxy-3-(2-methylpropyl)-1H,2H,3H,4H,6H,7H,11bH-pyrido[2,1-a]isoquinolin-2-yl]methyl 2-[(2R)-pyrrolidin-2-yl]acetate]",< 10
11,"COc1cc2c(cc1OC)[C@H]1C[C@@H](COC(=O)C3C(C)(C)C3(C)C)[C@H](CC(C)C)CN1CC2 [Compound 2-38, [(2R,3S,11bR)-9,10-dimethoxy-3-(2-methylpropyl)-1H,2H,3H,4H,6H,7H,11bH-pyrido[2,1-a]isoquinolin-2-yl]methyl 2,2,3,3-tetramethylcyclopropane-1-carboxylate]",10 to 500
12,"COc1cc2c(cc1OC)[C@H]1C[C@@H](COC(=O)CN3C[C@@H](C)O[C@@H](C)C3)[C@H](CC(C)C)CN1CC2 [Compound 2-8, [(2R,3S,11bR)-9,10-dimethoxy-3-(2-methylpropyl)-1H,2H,3H,4H,6H,7H,11bH-pyrido[2,1-a]isoquinolin-2-yl]methyl 2-[(2R,6S)-2,6-dimethylmorpholin-4-yl]acetate]",< 10
13,"COc1cc2c(cc1OC)[C@H]1CC(COC(=O)[C@@H](N)C(C)C)[C@H](CC(C)C)CN1CC2 (stereo partly drawn) [Compound 4-12, [(3S,11bR)-9,10-dimethoxy-3-(2-methylpropyl)-1H,2H,3H,4H,6H,7H,11bH-pyrido[2,1-a]isoquinolin-2-yl]methyl (2S)-2-amino-3-methylbutanoate]",< 10
14,"COc1cc2c(cc1OC)[C@H]1C[C@@H](COC(=O)[C@@H]3CC(=O)NC(=O)N3)[C@H](CC(C)C)CN1CC2 [Compound 2-31, [(2R,3S,11bR)-9,10-dimethoxy-3-(2-methylpropyl)-1H,2H,3H,4H,6H,7H,11bH-pyrido[2,1-a]isoquinolin-2-yl]methyl (4S)-2,6-dioxo-1,3-diazinane-4-carboxylate]",< 10
15,"COc1cc2c(cc1OC)[C@H]1C[C@@H](COC(=O)CCn3ccc(C)n3)[C@H](CC(C)C)CN1CC2 [Compound 2-23, [(2R,3S,11bR)-9,10-dimethoxy-3-(2-methylpropyl)-1H,2H,3H,4H,6H,7H,11bH-pyrido[2,1-a]isoquinolin-2-yl]methyl 3-(3-methyl-1H-pyrazol-1-yl)propanoate]",< 10
16,"COc1cc2c(cc1OC)C1CC(COC(=O)C3CC(C)(C)N([O])C3(C)C)C(CC(C)C)CN1CC2 [Compound 2-27, [3-({[(2R,3S,11bR)-9,10-dimethoxy-3-(2-methylpropyl)-1H,2H,3H,4H,6H,7H,11bH-pyrido[2,1-a]isoquinolin-2-yl]methoxy}carbonyl)-2,2,5,5-tetramethylpyrrolidin-1-yl]oxidanyl]",10 to 500
17,"COc1cc2c(cc1OC)[C@H]1C[C@@H](COC(=O)CCNS(=O)(=O)C(C)C)[C@H](CC(C)C)CN1CC2 [Compound 2-16, [(2R,3S,11bR)-9,10-dimethoxy-3-(2-methylpropyl)-1H,2H,3H,4H,6H,7H,11bH-pyrido[2,1-a]isoquinolin-2-yl]methyl 3-(propane-2-sulfonamido)propanoate]",< 10
18,"COc1cc2c(cc1OC)[C@H]1C[C@@H](COC(=O)C3CCCN(S(C)(=O)=O)C3)[C@H](CC(C)C)CN1CC2 (stereo partly drawn) [Compound 2-37, [(2R,3S,11bR)-9,10-dimethoxy-3-(2-methylpropyl)-1H,2H,3H,4H,6H,7H,11bH-pyrido[2,1-a]isoquinolin-2-yl]methyl 1-methanesulfonylpiperidine-3-carboxylate]",10 to 500
19,"COc1cc2c(cc1OC)[C@H]1C[C@@H](COC(=O)CC3(N)CCCCC3)[C@H](CC(C)C)CN1CC2 [Compound 4-14, [(2R,3S,11bR)-9,10-dimethoxy-3-(2-methylpropyl)-1H,2H,3H,4H,6H,7H,11bH-pyrido[2,1-a]isoquinolin-2-yl]methyl 2-(1-aminocyclohexyl)acetate]",< 10
20,"COc1cc2c(cc1OC)[C@H]1C[C@@H](COC(=O)CC(N)=O)[C@H](CC(C)C)CN1CC2 [Compound 2-9, [(2R,3S,11bR)-9,10-dimethoxy-3-(2-methylpropyl)-1H,2H,3H,4H,6H,7H,11bH-pyrido[2,1-a]isoquinolin-2-yl]methyl 2-carbamoylacetate]",< 10

# Results, then the compound that gave them:
row,Ki [nM],SMILES
1,< 10,"COc1cc2c(cc1OC)[C@H]1C[C@@H](COCC3CCNC3)[C@H](CC(C)C)CN1CC2 (stereo partly drawn) [Compound 10-6, 3-({[(2R,3S,11bR)-9,10-dimethoxy-3-(2-methylpropyl)-1H,2H,3H,4H,6H,7H,11bH-pyrido[2,1-a]isoquinolin-2-yl]methoxy}methyl)pyrrolidine]"
2,< 10,"COc1cc2c(cc1OC)[C@H]1C[C@@H](COC(=O)N3CCN[C@H](C#N)C3)[C@H](CC(C)C)CN1CC2 [Compound 6-9, [(2R,3S,11bR)-9,10-dimethoxy-3-(2-methylpropyl)-1H,2H,3H,4H,6H,7H,11bH-pyrido[2,1-a]isoquinolin-2-yl]methyl (3S)-3-cyanopiperazine-1-carboxylate]"
3,10 to 500,"COc1cc2c(cc1OC)[C@H]1C[C@@H](COC(=O)OC(C)C)[C@H](CC(C)C)CN1CC2 [Compound 8-1, [(2R,3S,11bR)-9,10-dimethoxy-3-(2-methylpropyl)-1H,2H,3H,4H,6H,7H,11bH-pyrido[2,1-a]isoquinolin-2-yl]methyl propan-2-yl carbonate]"
4,< 10,"COc1cc2c(cc1OC)[C@H]1C[C@@H](COC(=O)N3CCO[C@@H](C)C3)[C@H](CC(C)C)CN1CC2 [Compound 5-44, [(2R,3S,11bR)-9,10-dimethoxy-3-(2-methylpropyl)-1H,2H,3H,4H,6H,7H,11bH-pyrido[2,1-a]isoquinolin-2-yl]methyl (2S)-2-methylmorpholine-4-carboxylate]"
5,< 10,"COc1cc2c(cc1OC)[C@H]1C[C@@H](COC(=O)N3C[C@@H]4C[C@H]3CO4)[C@H](CC(C)C)CN1CC2 [Compound 5-24, [(2R,3S,11bR)-9,10-dimethoxy-3-(2-methylpropyl)-1H,2H,3H,4H,6H,7H,11bH-pyrido[2,1-a]isoquinolin-2-yl]methyl(1S,4S)-2-oxa-5-azabicyclo[2.2.1]heptane-5-carboxylate]"
6,< 10,"COc1cc2c(cc1OC)[C@H]1C[C@@H](COC(=O)N3CCN(C)C[C@H]3C)[C@H](CC(C)C)CN1CC2 [Compound 5-50, [(2R,3S,11bR)-9,10-dimethoxy-3-(2-methylpropyl)-1H,2H,3H,4H,6H,7H,11bH-pyrido[2,1-a]isoquinolin-2-yl]methyl (2R)-2,4-dimethylpiperazine-1-carboxylate]"
7,10 to 500,"COc1cc2c(cc1OC)[C@H]1C[C@@H](COC(=O)N3CCN(S(C)(=O)=O)CC3)[C@H](CC(C)C)CN1CC2 [Compound 5-15, [(2R,3S,11bR)-9,10-dimethoxy-3-(2-methylpropyl)-1H,2H,3H,4H,6H,7H,11bH-pyrido[2,1-a]isoquinolin-2-yl]methyl 4-methanesulfonylpiperazine-1-carboxylate]"
